In patent US11730720B2, “ALK5 inhibitors” (THERAVANCE BIOPHARMA R&D IP, LLC, priority 2018, dated 2023):

Experiments:
[1] = test system: TGF-β-stimulated SMAD3 phosphorylation in BEAS-2B cells; assay: Cellular ALK5 potency assay, inhibition of TGF-β stimulated pSMAD3 formation in BEAS-2B cells; assay type: cell-based; details: Homo sapiens, inhibition of TGF-β (10 ng/mL) stimulated pSMAD3 formation, 1 hour compound incubation, read-out: BEAS2B pIC50 (converted)
Method in brief: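 Phospho-SMAD3 was quantified by AlphaLISA in lysates of human lung epithelial BEAS-2B cells. Compound was added 1 h (37 °C, HEPES/BSA-supplemented HBSS) before a 30 min challenge with 10 ng/mL TGF-β. Values are pIC50 relative to stimulated cells without compound.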

[2] = biological target: T1, recombinant human ALK5 (TGF-βR1) protein (Homo sapiens, UniProt P36897); assay: Biochemical ALK5 (TGF-βR1) assay to measure pKi (LANCE Ultra ULight kinase assay); details: apparent pKi, converted from pIC50 using the Cheng-Prusoff equation
T1 construct: purchased Life Technologies PR9075A
T1 sequence (P36897 34-503): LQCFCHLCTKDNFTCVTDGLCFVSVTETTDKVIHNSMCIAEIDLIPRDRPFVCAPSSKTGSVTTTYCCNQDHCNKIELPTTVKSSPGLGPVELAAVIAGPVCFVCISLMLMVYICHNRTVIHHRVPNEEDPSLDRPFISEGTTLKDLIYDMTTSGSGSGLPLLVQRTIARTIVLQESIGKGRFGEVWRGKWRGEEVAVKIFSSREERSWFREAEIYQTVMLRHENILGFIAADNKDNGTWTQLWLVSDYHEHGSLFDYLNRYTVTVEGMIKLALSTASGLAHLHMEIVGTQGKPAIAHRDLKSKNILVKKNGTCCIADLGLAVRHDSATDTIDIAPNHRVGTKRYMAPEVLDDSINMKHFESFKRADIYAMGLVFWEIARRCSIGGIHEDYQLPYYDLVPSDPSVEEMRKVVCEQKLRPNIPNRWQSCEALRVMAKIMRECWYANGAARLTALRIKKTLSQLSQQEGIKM
Method in brief: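 TR-FRET kinase format: compound dose range 10 μM–25 pM equilibrated 60 min with human ALK5 and ULight-labelled topoisomerase 2α peptide in HEPES/MgCl2 buffer pH 7.5 with DTT. Reaction started with ATP (125 μM stock, 5× final), 60 min at 37° C, stopped with EDTA/Eu-anti-phospho antibody; pKi derived from pIC50 via Cheng-Prusoff.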

Compound	Ki [2] [nM]	IC50 [1] [nM]
Fc1ccc(Cl)cc1-c1n[nH]cc1-c1ccc2ncc(-c3nnc4n3CCN4)cc2n1 [Compound 1-110, 2-[3-(5-chloro-2-fluoro-phenyl)-1H-pyrazol-4-yl]-7-(6,7-dihydro-5H-imidazo[2,1-c][1,2,4]triazol-3-yl)-1,5-naphthyridine]	0.0398 to 0.316	200 to 1260
Fc1ccc(Cl)cc1-c1n[nH]cc1-c1ccc2ncc(-c3cnc4n3CCNC4)cc2n1 [Compound 1-107, 2-[3-(5-chloro-2-fluoro-phenyl)-1H-pyrazol-4-yl]-7-(5,6,7,8-tetrahydroimidazo[1,2-a]pyrazin-3-yl)-1,5-naphthyridine]	0.0398 to 0.316	25.1 to 158
OCCN1CCN(c2cnc3ccc(-c4c[nH]nc4-c4ccc(F)c(F)c4)nc3c2)CC1 [Compound 8-8, 2-[4-[6-[3-(3,4-difluorophenyl)-1H-pyrazol-4-yl]-1,5-naphthyridin-3-yl]piperazin-1-yl]ethanol]	3.98 to 31.6	25.1 to 158
CNC1CCN(c2cnc3ccc(-c4c(-c5cc(Cl)ccc5F)[nH]c5cccnc45)nc3c2)CC1 [Compound 25-1, 1-[6-[2-(5-chloro-2-fluoro-phenyl)-1H-pyrrolo[3,2-b]pyridin-3-yl]-1,5-naphthyridin-3-yl]-N-methyl-piperidin-4-amine]	3.98 to 31.6	200 to 1260
CC(C)NC(=O)[C@H]1CN(c2cnc3ccc(-c4c[nH]nc4-c4cc(Cl)ccc4F)nc3c2)CCN1 [Compound 1-66, (R)-4-(6-(3-(5-Chloro-2-fluorophenyl)-1H-pyrazol-4-yl)-1,5-naphthyridin-3-yl)-N-isopropylpiperazine-2-carboxamide]	0.398 to 3.16	25.1 to 158
O=C(O)C1CN(CCNc2cnc3ccc(-c4c[nH]nc4-c4cc(Cl)ccc4F)nc3c2)CCN1 (centres unmarked) [Compound 1-133, 4-[2-[[6-[3-(5-chloro-2-fluoro-phenyl)-1H-pyrazol-4-yl]-1,5-naphthyridin-3-yl]amino]ethyl]piperazine-2-carboxylic acid]	0.0398 to 0.316	200 to 1260
CNCCn1cc(-c2cnc3ccc(-c4c[nH]nc4-c4cc(Cl)ccc4F)nc3c2)nn1 [Compound 1-131, 2-[4-[6-[3-(5-chloro-2-fluoro-phenyl)-1H-pyrazol-4-yl]-1,5-naphthyridin-3-yl]triazol-1-yl]-N-methyl-ethanamine]	0.0398 to 0.316	≤ 20
CNCCn1cc(-c2cnc3ccc(-c4nc[nH]c4-c4cc(Cl)ccc4F)cc3c2)cn1 [Compound 17-2, 2-[4-[6-[5-(5-chloro-2-fluoro-phenyl)-1H-imidazol-4-yl]-3-quinolyl]pyrazol-1-yl]-N-methyl-ethanamine]	≤ 0.0316	25.1 to 158
Fc1ccc(Cl)cc1-c1[nH]cnc1-c1ccc2ncc(N3CCNCC3)cc2n1 [Compound 2-8, 2-[5-(5-chloro-2-fluoro-phenyl)-1H-imidazol-4-yl]-7-piperazin-1-yl-1,5-naphthyridine]	0.0398 to 0.316	≤ 20
Fc1cc(F)c(-c2n[nH]cc2-c2ccc3ncc(N4CCC(N5CCCCC5)C4)cc3n2)cc1Cl (racemic) [Compound 6-21, 2-[3-(5-chloro-2,4-difluoro-phenyl)-1H-pyrazol-4-yl]-7-[rac-(3R)-3-(1-piperidyl)pyrrolidin-1-yl]-1,5-naphthyridine]	0.0398 to 0.316	25.1 to 158
CNC(=O)C1CN(c2cnc3ccc(-c4c[nH]nc4-c4cc(Cl)ccc4F)nc3c2)CCN1C (racemic) [Compound 1-77, rac-(2R)-4-[6-[3-(5-chloro-2-fluoro-phenyl)-1H-pyrazol-4-yl]-1,5-naphthyridin-3-yl]-N,1-dimethyl-piperazine-2-carboxamide]	0.0398 to 0.316	25.1 to 158
NC1CCN(c2cnc3ccc(-c4c[nH]nc4-c4cc(Cl)c(F)cc4F)nc3c2)C1 (centres unmarked) [Compound 6-34, 1-[6-[3-(5-chloro-2,4-difluoro-phenyl)-1H-pyrazol-4-yl]-1,5-naphthyridin-3-yl]pyrrolidin-3-amine]	≤ 0.0316	≤ 20
CC(C)N1CCN(C(C)(C)CNc2cnc3ccc(-c4c[nH]nc4-c4cc(Cl)ccc4F)nc3c2)CC1 [Compound 1-5, 6-[3-(5-chloro-2-fluoro-phenyl)-1H-pyrazol-4-yl]-N-[2-(4-isopropylpiperazin-1-yl)-2-methyl-propyl]-1,5-naphthyridin-3-amine]	3.98 to 31.6	25.1 to 158
Fc1cc(F)c(-c2n[nH]cc2-c2ccc3ncc(NCC4CCCCN4)cc3n2)cc1Cl (centres unmarked) [Compound 6-8, 6-[3-(5-chloro-2,4-difluoro-phenyl)-1H-pyrazol-4-yl]-N-(2-piperidylmethyl)-1,5-naphthyridin-3-amine]	0.398 to 3.16	25.1 to 158
CCN1CCC(N(C)c2cnc3ccc(-c4c[nH]nc4-c4cc(Cl)c(F)cc4F)nc3c2)CC1 [Compound 6-15, 6-[3-(5-chloro-2,4-difluoro-phenyl)-1H-pyrazol-4-yl]-N-(1-ethyl-4-piperidyl)-N-methyl-1,5-naphthyridin-3-amine]	0.398 to 3.16	25.1 to 158

Second part, led by results:

Ki [2] [nM]	Compound	IC50 [1] [nM]
0.0398 to 0.316	Fc1ccc(Cl)cc1-c1[nH]cnc1-c1ccc2ncc(-c3cnn(C4CCCNC4)c3)cc2n1 (centres unmarked) [Compound 2-18, 2-[5-(5-chloro-2-fluoro-phenyl)-1H-imidazol-4-yl]-7-[1-(3-piperidyl)pyrazol-4-yl]-1,5-naphthyridine]	25.1 to 158
3.98 to 31.6	CNC1CCN(c2cnc3ccc(-c4c[nH]nc4-c4cccc(COC)c4)nc3c2)CC1 [Compound 14-1, 1-(6-(3-(3-(methoxymethyl)phenyl)-1H-pyrazol-4-yl)-1,5-naphthyridin-3-yl)-N-methylpiperidin-4-amine]	25.1 to 158
0.0398 to 0.316	CN1CCN(CCNc2cnc3ccc(-c4c[nH]nc4-c4cc(Cl)ccc4F)nc3c2)CC1 [Compound 1-12, 6-[3-(5-chloro-2-fluoro-phenyl)-1H-pyrazol-4-yl]-N-[2-(4-methylpiperazin-1-yl)ethyl]-1,5-naphthyridin-3-amine]	≤ 20
3.98 to 31.6	COCc1cccc(-c2[nH]cnc2-c2ccc3ncc(NCCN4CCNCC4)cc3n2)c1 [Compound 15-1, 6-(5-(3-(methoxymethyl)phenyl)-1H-imidazol-4-yl)-N-(2-(piperazin-1-yl)ethyl)-1,5-naphthyridin-3-amine]	200 to 1260
0.0398 to 0.316	NCCn1cc(-c2cnc3ccc(-c4nc[nH]c4-c4ccc(F)c(F)c4)cc3c2)cn1 [Compound 23-1, 2-(4-(6-(5-(3,4-difluorophenyl)-1H-imidazol-4-yl)quinolin-3-yl)-1H-pyrazol-1-yl)ethan-1-amine]	25.1 to 158
3.98 to 31.6	CN1C[C@H]2C[C@@H]1CN2c1cnc2ccc(-c3c[nH]nc3-c3cc(Cl)ccc3F)nc2c1 (racemic) [Compound 1-42, 2-[3-(5-chloro-2-fluoro-phenyl)-1H-pyrazol-4-yl]-7-[rac-(1R,4R)-5-methyl-2,5-diazabicyclo[2.2.1]heptan-2-yl]-1,5-naphthyridine]	25.1 to 158
0.0398 to 0.316	Fc1ccc(Cl)cc1-c1n[nH]cc1-c1ccc2ncc(-c3nnn4c3NCCC4)cc2n1 [Compound 1-118, 2-[3-(5-chloro-2-fluoro-phenyl)-1H-pyrazol-4-yl]-7-(4,5,6,7-tetrahydrotriazolo[1,5-a]pyrimidin-3-yl)-1,5-naphthyridine]	≤ 20
